Assay results reported in patent publication US20210400977A1, “META-DIAMIDE COMPOUNDS FOR CONTROLLING INVERTEBRATE PESTS” (FMC Corporation, priority 2018, published 2021).

Key:
[1] = tested on: sweetpotato whitefly (Bemisia tabaci (Gennadius)); test: Test G: control of sweetpotato whitefly through contact and/or systemic means; format: in vivo; details: 312 h, assessed after 13 days
Procedure: (§1) Test compounds were formulated using a solution containing 10% acetone, 90% water and 300 ppm Activator 90® non-ionic surfactant (Loveland Products, Loveland, Colo., USA). The formulated compounds were applied in 1 mL of liquid through an atomizer nozzle positioned 1.27 cm (0.5 inches) above the top of each test unit. Test compounds were sprayed at the rates indicated, and each test was replicated three times.
For evaluating control of the sweetpotato whitefly (Bemisia tabaci (Gennadius)) through contact and/or systemic means, the test unit consisted of a small open container with a 12-14-day-old cotton plant or 7-9-day-old soybean plant inside. Prior to the spray application, both cotyledons were removed from the plant, leaving one true leaf for the assay. Adult whiteflies were allowed to lay eggs on the plant and then were removed from the test unit. Cotton or soybean plants infested with at least 15 eggs were submitted to the test for spraying.
Test compounds were formulated and sprayed at 250 and/or 50 ppm. After spraying, the test units were allowed to dry for 1 hour. The cylinders were then removed, and the units were taken to a growth chamber and held for 13 days at 28° C. and 50-70% relative humidity. Each test unit was then visually assessed for insect mortality.

[2] = tested on: corn planthopper (Peregrinus maidis (Ashmead)); test: Test C: control of corn planthopper through contact and/or systemic means; format: in vivo; details: 144 h, sprayed at 250 ppm, assessed after 6 days
Procedure: as §1
For evaluating control of corn planthopper (Peregrinus maidis (Ashmead)) through contact and/or systemic means, the test unit consisted of a small open container with a 3-4-day-old corn (maize) plant inside. White sand was added to the top of the soil prior to application of the test compound.
Test compounds were formulated and sprayed at 250 and/or 50 ppm. After spraying of the formulated test compound, the test units were allowed to dry for 1 h before they were post-infested with ˜15-20 nymphs (18-to-21-day-old). A black, screened cap was placed on the top of each test unit, and the test units were held for 6 days in a growth chamber at 22-24° C. and 50-70% relative humidity. Each test unit was then visually assessed for insect mortality.

| Structure (SMILES) | melting point [°C] | mortality at 50 ppm ([1]; sprayed at 50 ppm) [%] | mortality at 250 ppm ([1]; sprayed at 250 ppm) [%] | mortality at 250 ppm [2] [%] |
| --- | --- | --- | --- | --- |
| CC(C)C(=O)NCc1ccc(Cl)c(NC(=O)C2C(c3cc(Cl)cc(Cl)c3)C2(Cl)Cl)c1 (stereo not shown) [Compound 136] | 187 to 191 |  |  |  |
| CCC(=O)NCc1cc(NC(=O)C2C(c3cc(Cl)cc(Cl)c3)C2(Cl)Cl)ccc1F (stereo not shown) [Compound 153] |  | ≥ 70 | ≥ 70 | ≥ 80 |
| CC(=O)NCc1nc(NC(=O)C2C(c3ccc(F)c(Cl)c3)C2(Cl)Cl)ccc1Br (stereo not shown) [Compound 247] | 170 to 173 |  |  |  |
| O=C(NCc1nc(NC(=O)C2C(c3ccc(F)c(Cl)c3)C2(Cl)Cl)ccc1Br)C1CC1 (stereo not shown) [Compound 254] | 152 to 155 |  |  |  |
| O=C(CC(F)(F)F)NCc1nc(NC(=O)C2C(c3ccc(F)c(Cl)c3)C2(Cl)Cl)ccc1Br (stereo not shown) [Compound 256] | 184 to 187 |  |  |  |
